Data as given in patent US8247211B2, “Glycopeptide antibiotics” (American Cyanamid Company, priority 2001, dated 2012).
Values after ≈ are worked out from the molar mass of the structure shown.

Experiments:
Assay in all cases: In vitro antibacterial evaluation: minimum inhibitory concentration (MIC), broth dilution method
Assay type in all cases: cell-based
[1] = system: Escherichia coli; settings: 18 hours at 35° C.
In short: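 First, organisms are seeded at 5×10^5 CFU/mL into Muller-Hinton II […]. Next, antibiotic is applied across 64-0.06 μg/mL by broth dilution (NCCLS M7-A2). Finally, the lowest inhibitory concentration is recorded as MIC.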

[2] = system: Staphylococcus sp.
In short: (§1)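 Inoculum: 5×10^5 CFU/mL. Range: 64-0.06 μg/mL. Medium: Muller-Hinton II […]; NCCLS M7-A2 broth dilution. Endpoint: lowest concentration inhibiting growth. Strains include methicillin-, penicillin- and/or vancomycin-resistant clinical isolates.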

[3] = system: Streptococcus sp.; settings: 18 hours at 35° C.
In short: as §1

[4] = system: Enterococcus sp.; settings: 18 hours at 35° C.
In short: as §1

[5] = broth dilution, inoculum 5×10^5 CFU/mL

MIC Escherichia coli (ATCC 25922) ([1]; Escherichia coli (ATCC 25922)): >64 µg/mL | MIC Escherichia coli (GC 4559) ([1]; Escherichia coli (GC 4559)): >64 µg/mL | MIC Escherichia coli (GC 4560) ([1]; Escherichia coli (GC 4560)): 16 µg/mL (≈ 11.2 µM) | MIC Staphylococcus aureus (ATCC 29213) ([2]; strain ATCC 29213): 16 µg/mL (≈ 11.2 µM) | MIC Staphylococcus aureus (GC 1131) ([2]; strain GC 1131): 16 µg/mL (≈ 11.2 µM) | MIC Staphylococcus aureus (GC 3051) ([2]; strain GC 3051): 16 µg/mL (≈ 11.2 µM) | MIC Staphylococcus aureus (GC 3053) ([2]; strain GC 3053): 16 µg/mL (≈ 11.2 µM) | MIC Staphylococcus aureus (GC 4541) ([2]; strain GC 4541): 8 µg/mL (≈ 5.59 µM) | MIC Staphylococcus aureus (GC 4542) ([2]; strain GC 4542): 4 µg/mL (≈ 2.79 µM) | MIC Staphylococcus aureus-SMITH (GC 4543) ([2]; strain GC 4543): 4 µg/mL (≈ 2.79 µM) | MIC Staphylococcus aureus (GC 4544) ([2]; strain GC 4544): 16 µg/mL (≈ 11.2 µM) | MIC Staphylococcus aureus (GC 4545) ([2]; strain GC 4545): 16 µg/mL (≈ 11.2 µM) | MIC Coagulase Negative Staphylococcus (GC 4547) ([2]; strain GC 4547): 8 µg/mL (≈ 5.59 µM) | MIC Coagulase Negative Staphylococcus (GC 4548) ([2]; strain GC 4548): 8 µg/mL (≈ 5.59 µM) | MIC Coagulase Negative Staphylococcus (GC 4549) ([2]; strain GC 4549): 8 µg/mL (≈ 5.59 µM) | MIC Coagulase Negative Staphylococcus (GC 4551) ([2]; strain GC 4551): 16 µg/mL (≈ 11.2 µM) | MIC Coagulase Negative Staphylococcus (GC 6257) ([2]; strain GC 6257): 8 µg/mL (≈ 5.59 µM) | MIC Streptococcus agalactiae (GC 4564) ([3]; Streptococcus agalactiae (GC 4564)): 16 µg/mL (≈ 11.2 µM) | MIC Streptococcus pneumoniae (ATCC 6301) ([3]; Streptococcus pneumoniae (ATCC 6301)): 8 µg/mL (≈ 5.59 µM) | MIC Streptococcus pneumoniae (GC 1894) ([3]; Streptococcus pneumoniae (GC 1894)): 4 µg/mL (≈ 2.79 µM) | MIC Streptococcus pneumoniae (GC 4565) ([3]; Streptococcus pneumoniae (GC 4565)): 8 µg/mL (≈ 5.59 µM) | MIC Streptococcus pyogenes (GC 4563) ([3]; Streptococcus pyogenes (GC 4563)): 16 µg/mL (≈ 11.2 µM) | MIC Streptococcus agalactiae (GC 4564) [3, 5]: 16 µg/mL (≈ 11.2 µM) | MIC Streptococcus pneumoniae (ATCC 6301) [3, 5]: 8 µg/mL (≈ 5.59 µM) | MIC Streptococcus pneumoniae (GC 1894) [3, 5]: 4 µg/mL (≈ 2.79 µM) | MIC Streptococcus pneumoniae (GC 4565) [3, 5]: 8 µg/mL (≈ 5.59 µM) | MIC Streptococcus pyogenes (GC 4563) [3, 5]: 16 µg/mL (≈ 11.2 µM) | MIC Enterococcus avium (GC 4558) ([4]; Enterococcus avium (GC 4558)): 16 µg/mL (≈ 11.2 µM) | MIC Enterococcus faecalis (ATCC 29212) ([4]; Enterococcus faecalis (ATCC 29212)): 32 µg/mL (≈ 22.4 µM) | MIC Enterococcus faecalis (GC 2242) ([4]; Enterococcus faecalis (GC 2242)): 32 µg/mL (≈ 22.4 µM) | MIC Enterococcus faecalis (GC 2691) ([4]; Enterococcus faecalis (GC 2691)): 32 µg/mL (≈ 22.4 µM) | MIC Enterococcus faecalis (GC 3059) ([4]; Enterococcus faecalis (GC 3059)): 32 µg/mL (≈ 22.4 µM) | MIC Enterococcus faecalis (GC 4552) ([4]; Enterococcus faecalis (GC 4552)): 32 µg/mL (≈ 22.4 µM) | MIC Enterococcus faecalis (GC 4553) ([4]; Enterococcus faecalis (GC 4553)): 32 µg/mL (≈ 22.4 µM) | MIC Enterococcus faecalis (GC 4554) ([4]; Enterococcus faecalis (GC 4554)): 32 µg/mL (≈ 22.4 µM) | MIC Enterococcus faecalis (GC 6189) ([4]; Enterococcus faecalis (GC 6189)): 32 µg/mL (≈ 22.4 µM) | MIC Enterococcus faecium (GC 2243) ([4]; Enterococcus faecium (GC 2243)): 32 µg/mL (≈ 22.4 µM) | MIC Enterococcus faecium (GC 4556) ([4]; Enterococcus faecium (GC 4556)): 32 µg/mL (≈ 22.4 µM) | MIC Enterococcus faecium (GC 4557) ([4]; Enterococcus faecium (GC 4557)): 8 µg/mL (≈ 5.59 µM) | MIC Enterococcus avium (GC 4558) [4, 5]: 16 µg/mL (≈ 11.2 µM) | MIC Enterococcus faecalis (ATCC 29212) [4, 5]: 32 µg/mL (≈ 22.4 µM) | MIC Enterococcus faecalis (GC 2242) [4, 5]: 32 µg/mL (≈ 22.4 µM) | MIC Enterococcus faecalis (GC 2691) [4, 5]: 32 µg/mL (≈ 22.4 µM) | MIC Enterococcus faecalis (GC 3059) [4, 5]: 32 µg/mL (≈ 22.4 µM) | MIC Enterococcus faecalis (GC 4552) [4, 5]: 32 µg/mL (≈ 22.4 µM) | MIC Enterococcus faecalis (GC 4553) [4, 5]: 32 µg/mL (≈ 22.4 µM) | MIC Enterococcus faecalis (GC 4554) [4, 5]: 32 µg/mL (≈ 22.4 µM) | MIC Enterococcus faecalis (GC 6189) [4, 5]: 32 µg/mL (≈ 22.4 µM) | MIC Enterococcus faecium (GC 2243) [4, 5]: 32 µg/mL (≈ 22.4 µM) | MIC Enterococcus faecium (GC 4556) [4, 5]: 32 µg/mL (≈ 22.4 µM) | MIC Enterococcus faecium (GC 4557) [4, 5]: 8 µg/mL (≈ 5.59 µM)
Structure (SMILES): COc1ccc2cc(C3OCC4OC(OC5C(CO)OC(Oc6ccc(CC7NC(=O)C(C(C)c8ccccc8)NC(=O)CNC(=O)C(CO)NC(=O)C(CC8CNC(=N)N8C8OC(CO)C(O)C(O)C8O)NC(=O)C(CC8CNC(=N)N8)NC7=O)cc6)C(O)C5O)C(O)C(O)C4O3)ccc2c1 (stereo not shown) [Example 190]
MIC Staphylococcus haemolyticus (GC 4546) ([2]; strain GC 4546): 8 µg/mL (≈ 5.59 µM)
